Data: patent publication US7285664B2, “Heterocyclic or benzenic derivatives of lipoic acid, their preparation and their use as medicaments” (S.C.R.A.S. Societe de Conseils de Recherches et …, priority 2000, dated 2007)
Where a name gives a salt, the structure may show the parent alone.

The compounds below were run on HT-22 cells (assay: Effects on the oxidative stress induced by glutamate on cells in culture (HT-22), MTT viability). Conditions: Mus musculus; protection of HT-22 cells from glutamate (5 mM); viability after 24 hours by MTT.
Format: cell-based
Description: Study of the Effects on the Oxidative Stress Induced by Glutamate on Cells in Culture (HT-22):
The inhibitory activity of the products of the invention is determined by measuring their ability to protect the cells of a mouse hippocampal cell line (HT-22) from oxidative stress caused by glutamate. The biosynthesis of glutathione, an essential element in cell detoxification of free radicals, requires the active transport of cystine to inside the cell. The glutamate by opposing the penetration of cystine causes a reduction in the level of gluthatione which leads to the death of the cell by oxidative stress (Demerle-Pallardy, C. et al., J. Neurochem. (2000), 74, 2079-2086; Davis, J. B. and Maher, P., Brain Res., (1994) 652: 169-173; Murphy, T. H. et al., Neuron, (1989) 2: 1547-1558). The cells are cultured at 37° C. in a DMEM medium with 10% of fetal calf serum added to it. The tests are carried out in 96-well plates containing 5000 cells per well. The glutamate (5 mM) is added to the medium containing or not containing the products to be tested. The cell viability is tested after 24 hours by the MTT process (Hansen, M. B. et al., J. Immunol. Processes (1989) 119: 203-210). The ability of the compounds to protect the cells from the toxic action of the glutamate is estimated in EC50, calculated relative to the viability of cells which have not been subjected to the action of the glutamate considered as 100% viability.
`NC(=Nc1ccc(N2CCN(C(=O)CC3CCSS3)CC2)cc1)c1cccs1` (stereo not drawn) [Example 2, N′-(4-{4-[2-(1,2-dithiolan-3-yl)acetyl]-1-piperazinyl}phenyl)-2-thiophenecarboximidamide] gave an EC50 of at most 4 µM. In the case of `N#Cc1cc(N=C(N)c2cccs2)ccc1N1CCN(C(=O)NCCCCC2CCSS2)CC1` (stereo not drawn) [Example 10, 4-(4-{[amino(2-thienyl)methylidene]amino}-2-cyanophenyl)-N-[4-(1,2-dithiolan-3-yl)butyl]-1-piperazinecarboxamide], the EC50 is reported as at most 4 µM. With `NC(=Nc1cccc(CN2CCN(C(=O)CC3CCSS3)CC2)c1)c1cccs1` (stereo not drawn) [Example 4, N′-[3-({4-[2-(1,2-dithiolan-3-yl)acetyl]-1-piperazinyl}methyl)phenyl]-2-thiophenecarboximidamide] the EC50 was at most 4 µM. With `NC(=Nc1cccc(CN2CCN(C(=O)NCCCCC3CCSS3)CC2)c1)c1cccs1` (stereo not drawn) [Example 11, 4-(3-{[amino(2-thienyl)methylidene]amino}benzyl)-N-[4-(1,2-dithiolan-3-yl)butyl]-1-piperazinecarboxamide] the EC50 was at most 4 µM. `NC(=Nc1ccc(N2CCN(C(=O)NCCCCC3CCSS3)CC2)cc1)c1cccs1` (stereo not drawn) [Example 5, 4-(4-{[amino(2-thienyl)methylidene]amino}phenyl)-N-[4-(1,2-dithiolan-3-yl)butyl]-1-piperazinecarboxamide] gave an EC50 of at most 4 µM. For `COc1cc(N=C(N)c2cccs2)ccc1N1CCN(C(=O)NCCCCC2CCSS2)CC1` (stereo not drawn) [Example 8, 4-(4-{[amino(2-thienyl)methylidene]amino}-2-methoxyphenyl)-N-[4-(1,2-dithiolan-3-yl)butyl]-1-piperazinecarboxamide], the EC50 was at most 4 µM. In the case of `COc1cc(N2CCN(C(=O)NCCCCC3CCSS3)CC2)ccc1N=C(N)c1cccs1` (stereo not drawn) [Example 9, 4-(4-{[amino(2-thienyl)methylidene]amino}-3-methoxyphenyl)-N-[4-(1,2-dithiolan-3-yl)butyl]-1-piperazinecarboxamide], the EC50 is reported as at most 4 µM. For `Cc1cc(N2CCN(C(=O)NCCCCC3CCSS3)CC2)ccc1N=C(N)c1cccs1` (stereo not drawn) [Example 7, 4-(4-{[amino(2-thienyl)methylidene]amino}-3-methylphenyl)-N-[4-(1,2-dithiolan-3-yl)butyl]-1-piperazinecarboxamide], the EC50 was at most 4 µM. `NC(=Nc1ccc(N2CCN(C(=O)CCCCC3CCSS3)CC2)cc1)c1cccs1` (stereo not drawn) [Example 1, N′-(4-{4-[5-(1,2-dithiolan-3-yl)pentanoyl]-1-piperazinyl)phenyl)-2-thiophenecarboximidamide hydrochloride] was tested, and the EC50 was at most 4 µM.
